For one data set, the system named is HSV-2 G. In words: anti-HSV screening test (cytopathogenic effect, fluorescein diacetate fluorescence readout) in Vero cells. Type of data set: cell-based. The settings on record: read-out: IC50 HSV-2 G/Vero. Here is the method: (§1) HSV (HSV-1 Walki, HSV-1F or HSV-2G) was replicated on Vero cells (ATCC CCL-81) under the following conditions: the cells were grown in M199 medium (5% fetal calf serum, 2 mM glutamine, 100 IU/ml penicillin, 100 μg/ml streptomycin) in cell culture bottles at 37° C. and 5% CO2. The cells were split 1:4 on each of two occasions each week. For the infection, the medium was removed, and the cells were washed with Hank's solution, detached with 0.05% trypsin, 0.02% EDTA (Seromed L2143) and incubated at a density of 4×10^5 cells per ml under the conditions mentioned above for 24 hours. The medium was then removed, and the virus solution was added at an m.o.i. of <0.05 in a volume of 2 ml per 175 cm^2 of surface area. After incubation under the conditions mentioned for one hour, the medium was made up to a volume of 50 ml per 175 cm^2 bottle. […] The virus was released by freezing (−80° C.) and thawing (37° C.) twice. The cell debris was removed by centrifugation (300 g, 10 min, 4° C.) and the supernatant was frozen in aliquots at −80° C.
(§2) The anti-HSV effect was determined in a screening test system in 96-well microtitre plates with the assistance of various cell lines of neuronal, lymphoid and epithelial origin, such as, for example, Vero (African green monkey kidney cell line), MEF (murine embryonic fibroblasts), HELF (human embryonic fibroblasts), NT2 (human neuronal cell line) or Jurkat (human lymphoid T-cell line).
(§3) The substances dissolved (50 mM) in DMSO (dimethyl sulphoxide) are investigated on microtitre plates (for example 96-well MTP) in final concentrations of 250-0.5 μM (micromolar) in duplicate determinations (4 substances/plate). For potent substances, the dilutions are continued over several plates as far as 0.5 pM (picomolar). Toxic and cytostatic effects of the substance are also recorded. After the appropriate dilutions of the substance (1:2) on the microtitre plate, a suspension of cells (1×10^4 cells per well) such as, for example, Vero cells in M199 (medium 199) with 5% fetal calf serum, 2 mM glutamine and optionally 100 IU/ml penicillin and 100 μg/ml streptomycin or MEF cells in EMEM (Eagle's minimum essential medium) with 10% fetal calf serum, 2 mM glutamine and optionally 100 IU/ml penicillin and 100 μg/ml streptomycin, or HELF cells in EMEM with 10% fetal calf serum, 2 mM glutamine and optionally 100 IU/ml penicillin and 100 μg/ml streptomycin, or NT2 and Jurkat cells in DMEM ([…] glucose plus pyridoxine) with 10% fetal calf serum, 2 mM glutamine, 1 mM sodium pyruvate, nonessential amino acids and optionally 100 IU/ml penicillin and 100 μg/ml streptomycin is put in each well, and the cells in the relevant wells are infected with an appropriate amount of virus (HSV-1 F or HSV-2 G with an m.o.i (multiplicity of infection) of 0.0025 for HELF, Vero and MEF cells and with an m.o.i of 0.1 for NT2 and Jurkat cells). The plates are then incubated at 37° C. in a CO2 incubator (5% CO2) for several days. […] The plates are initially evaluated optically using a microscope and then analysed with a fluorescent dye. For this purpose, the cell culture supernatant is aspirated out of all the wells of the MTP and charged with 200 μl of PBS washing solution.

The subject of a further data set is HSV-1 F. Described as above. Type of data set: cell-based. The settings on record: read-out: IC50 HSV-1 F/Vero. The protocol:
as §1, §2, §3

For another data set, the system named is HSV. Description: in vivo effect: survival of intranasally HSV-infected mice. On the set-up: species or system strain BALB/cABom. To be noted: Mus musculus; female BALB/cABom mice, intranasal infection 5×10^4 pfu; treatment from 6 hours after infection, 3 times a day for 5 days; from graphs of survival; read-out: ED50 (50% of the animals survive at this dose). Here is the method:
6-week old female mice, strain BALB/cABom, were purchased from a commerical breeder (Bomholtgard Breeding and Research Centre Ltd.).
The animals were anaesthetized with diethyl ether (Merck) in a sealed glass vessel. 50 μl of a dilution of the virus stock (infectious dose 5×10^4 pfu) were introduced into the nose of the anaesthetized animals with an Eppendorf pipette. This infectious dose leads to death of 90-100% of the animals after an average of between 5 and 8 days due to a generalized infection with prominent respiratory and central nervous symptoms.
6 hours after the infection, the animals were treated with doses of 0.1-100 mg/kg of body weight 3 times a day at 7.00 h, 14.00 h and 19 h over a period of 5 days. The substances were dissolved in DMSO and resuspended in Tylose/PBS (Hoechst) (final concentration 1.5% DMSO, 0.5% Tylose in PBS).
After the last administration, the animals were observed further and the times of death were recorded.

[1] abbreviates: Human alphaherpesvirus 2, Vero cells infected with HSV-2 G, m.o.i. 0.0025, half-maximum fluorescence intensity in relation to the uninfected cell control.
Where [2] appears, read: Human alphaherpesvirus 1, Vero cells infected with HSV-1 F, m.o.i. 0.0025, half-maximum fluorescence intensity in relation to the uninfected cell control.

Where two headings read alike, the source gives them in different places.

One may read the melting point as the temperature, or range, at which the solid turns liquid. For orientation: ED50 means the dose at which the effect has come halfway, by size or by number of responders.

`CCOc1ccc(NC(=O)N(CCOC)c2nc(C)c(S(=O)(=O)NC)s2)cc1` yielded a melting point of 159 °C.

In turn, `CCn1c(=O)oc2cc(NC(=O)N(C)c3nc(Cl)c(S(=O)(=O)N(C)C)s3)ccc21` returned a melting point of 232 °C. On the same count and under the same terms, for `CCOc1ccc(NC(=O)N(CCOc2ccccc2)c2nc(C)c(S(=O)(=O)NC)s2)cc1` the value was 158 °C. Still for that read-out and setting: in the case of `Cc1nc(N(CC2CCCO2)C(=O)Nc2ccc(-c3ccccc3)cc2)sc1S(N)(=O)=O` (centres unmarked) it was 165 °C; in that of `CCOC(=O)N1CC2CCN(c3ccc(NC(=O)N(C)c4nc(S(=O)(=O)NC)c(C)s4)cc3)C2C1` (centres unmarked), 153 to 154 °C. The same measure, in the same setting: for `Cc1nc(N(C)C(=O)Nc2ccc(-n3cccc3)cc2)sc1S(=O)(=O)NC1CC1` the value was 194 °C. Take `CCCC(=O)Nc1cc(N2CCCC2)ccc1NC(=O)N(C)c1nc(C)c(S(=O)(=O)N(C)C)s1`: the melting point came out at 164 °C. Still for that read-out and setting: in the case of `COCCN(C(=O)Nc1ccc(N2CCOCC2)cc1)c1nc(C)c(S(N)(=O)=O)s1` it was 201 °C. Same read-out and setting: for `CNS(=O)(=O)c1sc(N(C)C(=O)Nc2ccc(N3CCOCC3)cc2)nc1Cl` the value was 228 °C; for `CCc1nc(N(C)C(=O)Nc2ccc(N3CCOCC3)cc2)sc1S(=O)(=O)N(C)C`, 199 °C; for `CCOc1ccc(NC(=O)N(Cc2cccnc2)c2nc(C)c(S(=O)(=O)N(C)C)s2)cc1`, 180 °C.

The molecule `CCOc1ccc(NC(=O)N(C)c2nc(C)c(S(=O)(=O)NCc3ccco3)s2)cc1` showed a melting point of 162 °C. Same read-out and setting: in the case of `CCOc1ccc(NC(=O)N(CC2CCCN2CC)c2nc(C)c(S(=O)(=O)N(C)C)s2)cc1` (centres unmarked) it was 158 °C; in that of `CN(C(=O)Nc1ccc(N2CCOCC2)cc1)c1nc(Cl)c(S(=O)(=O)N(C)C)s1` [3], 197 °C. On the same count and under the same terms, for `CN(C(=O)Nc1ccc(N2CCOCC2)cc1)c1nc(Cl)c(S(=O)(=O)N(C)C)s1` [9] the value was 210 °C. The same measure, in the same setting: in the case of `Cc1nc(N(C)C(=O)Nc2ccc(N3CCOCC3)cc2)sc1S(=O)(=O)N(C)C` [67] it was 171 °C. With `CCOc1ccc(NC(=O)N(CCCNC(=O)OC(C)(C)C)c2nc(C)c(S(=O)(=O)NCC(F)(F)F)s2)cc1` [135], the melting point was determined as 161 °C. Still for that read-out and setting: in the case of `CCOc1ccc(NC(=O)N(CCCNC(=O)OC(C)(C)C)c2nc(C)c(S(=O)(=O)NCC(F)(F)F)s2)cc1` [136] it was 150 °C; in that of `COCCN(C(=O)Nc1ccc(-c2ccccc2)cc1)c1nc(C)c(S(N)(=O)=O)s1` [151], 167 °C; in that of `CC(=O)Nc1cc(N2CCCC2)ccc1NC(=O)N(C)c1nc(C)c(S(=O)(=O)N(C)C)s1` [168], 185 to 187 °C (dec.). The molecule `CC(=O)Nc1cc(N2CCCC2)ccc1NC(=O)N(C)c1nc(C)c(S(=O)(=O)N(C)C)s1` [169] registered a melting point of 162 to 163 °C. The same measure, in the same setting: for `COCCN(C(=O)Nc1ccc(-c2ccccc2)cc1)c1nc(C)c(S(N)(=O)=O)s1` [195] the value was 193 °C. Consider `CCOc1ccc(NC(=O)N(CCN(C)C)c2nc(C)c(S(=O)(=O)NC)s2)cc1` [Example 2, 2-{[2-(Dimethylamino)ethyl][(4-ethoxyanilino)carbonyl]amino}-N,4-dimethyl-1,3-thiazole-5-sulphonamide], for which the IC50 with HSV-2 G (setting [1]) is 1000 nM; with HSV-1 F (setting [2]) it was 200 nM.

For `CNS(=O)(=O)c1sc(N(C)C(=O)Nc2ccc(N3CCOCC3)cc2)nc1C` [Example 43], the IC50 was 1500 nM in the data set with HSV-2 G (Human alphaherpesvirus 2, Vero) and 500 nM with HSV-1 F (Human alphaherpesvirus 1, Vero). The ED50 in the data set with HSV lay within 30 to 40 mg/kg. As for `CNS(=O)(=O)c1sc(N(C)C(=O)Nc2ccc(N3CCCC3)cc2)nc1C` [Example 94], the IC50 in the data set with HSV-2 G (setting [1]) was found to be 50 nM; in the data set with HSV-1 F (setting [2]), 20 nM. Consider `CNS(=O)(=O)c1sc(N(C)C(=O)Nc2ccc(-c3ccccc3)cc2)nc1C` [Example 123], for which the melting point was found to be 210 °C. Moreover, in the data set on HSV-2 G (setting [1]), the IC50 came to 5 nM. Besides, the IC50 with HSV-1 F (setting [2]) worked out at 1 nM.
